Reference: patent US4259235A, “Tricyclic nitrogenous compounds having string plant growth regulating properties” (BASF Aktiengesellschaft, priority 1977, dated 1981)
Read-outs that look alike come from different tables or passages of the source.

Key:
Euphorbia geniculata = experiment: Inhibition of shoot growth by growth regulators, pre- and postemergence (table 27); type: in vivo; conditions: Euphorbia heterophylla, post-emergence, read-out: shoot growth inhibition (%)
Procedure: (§1) Plastic flowerpots having a volume of 300 cm^3 were filled with a sandy loam and the test plants placed therein (either as seed, as vegetatively reproduced species, or as potted plants, e.g., vines). For preemergence treatment, the active ingredients were suspended or emulsified in water as vehicle and sprayed onto the surface of the soil immediately after sowing by means of finely distributing nozzles. The potted vines were treated by spraying them with the correspondingly diluted liquor. For postemergence treatment, the agents were, as stated above, sprayed in water onto the leaves of the test plants, some liquor also falling onto the soil. In some special cases, solid active ingredients were first dissolved in dimethylformamide and then applied in a total liquor amount of 400 liters of water per hectare. For the postemergence treatment, the plants were first grown to a height of from 3 to 10 cm before being treated. With grasses, the first growth was cut, and the new growth treated 2 to 3 days after cutting. The temperature requirements of the plants were taken into account by placing them in cooler or warmer sections of the greenhouse. The experiments were run for from 4 to 6 weeks, during which time the plants were tended and their reaction to the various treatments was assessed.
(§2) The application rates are given in kg/ha of active ingredient, regardless of the method of application and the amount of water used.
(§3) A 0 to 100 scale was used for the evaluation, 0 denoting normal emergence or no damage (or no inhibition), and 100 denoting non-emergence or complete destruction of the plants. A distinction should be made in the influence on growth between desired changes without any appreciable disadvantageous phytotoxic effects (e.g., purely growth-regulating effects) and those of a phytotoxic herbicical character.

Medicago sativa = experiment: as above; type: in vivo; conditions: post-emergence, read-out: shoot growth inhibition (%)
Procedure: as §1, §2, §3

Oryza sativa = experiment: Shoot growth, postemergence treatment in the greenhouse (table 25); type: in vivo
Procedure: as §1, §2, §3

Arachys hypogaea = experiment: as above; type: in vivo
Procedure: as §1, §2, §3

Poa pratensis = experiment: as above; type: in vivo
Procedure: as §1, §2, §3

Ipom. spp. = experiment: Herbicidal action, pre- and postemergence application in the greenhouse; type: in vivo, Ipomoea spp.; conditions: Ipomoea, post-emergence; 3.0 kg/ha POST; read-out: % damage
Procedure: as §1, §2, §3

Galium apar. = experiment: as above; type: in vivo, Galium aparine; conditions: post-emergence, read-out: % damage
Procedure: as §1, §2, §3

Lolium mult. = experiment: as above; type: in vivo; conditions: Lolium, post-emergence, read-out: % damage
Procedure: as §1, §2, §3

Sinapis alba = experiment: as above; type: in vivo; conditions: post-emergence, 3.0 kg/ha PRE, read-out: % damage
Procedure: as §1, §2, §3

Mentha piper. = experiment: as above; type: in vivo; conditions: post-emergence; 3.0 kg/ha POST; read-out: % damage
Procedure: as §1, §2, §3

Cynodon dact. (seed) = experiment: as above; type: in vivo, Cynodon dactylon; conditions: appln. rate 2 kg/ha, POST line
Procedure: as §1, §2, §3

Cynodon dactyl. = experiment: Shoot inhibition, pre- and postemergence treatment (table 28); type: in vivo, Cynodon dactylon; conditions: post-emergence, from seed, read-out: % shoot inhibition
Procedure: as §1, §2, §3

Euphorbia genic. = experiment: as above; type: in vivo, Euphorbia geniculata; conditions: post-emergence, read-out: % shoot inhibition
Procedure: as §1, §2, §3

Glycine max = experiment: as above; type: in vivo; conditions: post-emergence, read-out: % shoot inhibition
Procedure: as §1, §2, §3

Arachys hypog. = experiment: as above; type: in vivo, Arachys hypogaea; conditions: post-emergence, read-out: % shoot inhibition
Procedure: as §1, §2, §3

## c1ccc(C2=NOC3C4CC(C5N=NC45)C23)cc1 (stereo not drawn) [drawing 437]
Euphorbia geniculata; 0.5 kg/ha PRE
  inhibition at 500 g/ha: 33%
Euphorbia geniculata; 1.0 kg/ha PRE
  inhibition at 1000 g/ha: 40%
Euphorbia geniculata; 2.0 kg/ha POST
  inhibition at 2000 g/ha: 30%
Euphorbia geniculata; 4.0 kg/ha POST
  inhibition at 4000 g/ha: 30%
Medicago sativa; 2.0 kg/ha POST
  inhibition at 2000 g/ha: 20%
Medicago sativa; 4.0 kg/ha POST
  inhibition at 4000 g/ha: 20%

## C[N+](C)(C)CCCl [[ClCH2CH2N⊕(CH3)3]⊖, reference compound]
Oryza sativa; 1.0 kg/ha
  Shoot length: 20 cm
Oryza sativa; 2.0 kg/ha
  Shoot length: 20 cm
Oryza sativa; 4.0 kg/ha
  Shoot length: 20 cm
Arachys hypogaea; 1.0 kg/ha
  Shoot length: 16 cm
Arachys hypogaea; 2.0 kg/ha
  Shoot length: 16 cm
Arachys hypogaea; 4.0 kg/ha
  Shoot length: 16 cm
Poa pratensis; 1.0 kg/ha
  Shoot length: 4 cm
Poa pratensis; 2.0 kg/ha
  Shoot length: 4 cm
Poa pratensis; 4.0 kg/ha
  Shoot length: 3 cm

## FC(F)(F)c1cccc(NC2C(Br)C3CC2C2N=NC32)c1 (stereo not drawn)
Ipom. spp.
  pest or weed control at 3000 g/ha: 100%
Galium apar.; 3.0 kg/ha POST
  pest or weed control at 3000 g/ha: 90%
Lolium mult.; 3.0 kg/ha POST
  pest or weed control at 3000 g/ha: 100%
Lolium mult.; 3.0 kg/ha PRE
  pest or weed control at 3000 g/ha: 100%
Sinapis alba
  pest or weed control at 3000 g/ha: 95%
Mentha piper.
  pest or weed control at 3000 g/ha: 95%

## CC(=O)OC1C2CC(C3N=NC23)C1Nc1ccc(Br)cc1 (stereo not drawn)
Ipom. spp.
  pest or weed control at 3000 g/ha: 85%
Galium apar.
  pest or weed control at 3000 g/ha: 65%
Lolium mult.; 3.0 kg/ha POST
  pest or weed control at 3000 g/ha: 100%
Lolium mult.; 3.0 kg/ha PRE
  pest or weed control at 3000 g/ha: 80%
Sinapis alba
  pest or weed control at 3000 g/ha: 100%
Mentha piper.
  pest or weed control at 3000 g/ha: 95%

## CN(C)NC(=O)CCC(=O)O [drawing 434]
Arachys hypogaea; 1.0 kg/ha
  Shoot length: 12 cm
Arachys hypogaea; 2.0 kg/ha
  Shoot length: 5 cm
Arachys hypogaea; 4.0 kg/ha
  Shoot length: 5 cm
Poa pratensis; 1.0 kg/ha
  Shoot length: 4 cm
Poa pratensis; 2.0 kg/ha
  Shoot length: 4 cm
Poa pratensis; 4.0 kg/ha
  Shoot length: 4 cm

## C1C2C3N=NC3C1C1OC21 (stereo not drawn) [drawing 433]
Oryza sativa; 1.0 kg/ha
  Shoot length: 16 cm
Oryza sativa; 2.0 kg/ha
  Shoot length: 16 cm
Oryza sativa; 4.0 kg/ha
  Shoot length: 16 cm
Arachys hypogaea; 1.0 kg/ha
  Shoot length: 10 cm
Arachys hypogaea; 2.0 kg/ha
  Shoot length: 10 cm
Arachys hypogaea; 4.0 kg/ha
  Shoot length: 10 cm
Poa pratensis; 1.0, 2.0 and 4.0 kg/ha
  Leaf scorch (footnote x): limited leaf scorch
Poa pratensis; 1.0 kg/ha
  Shoot length: 2 cm
Poa pratensis; 2.0 kg/ha
  Shoot length: 2 cm
Poa pratensis; 4.0 kg/ha
  Shoot length: 2 cm

## Cc1ccc(NC2C(Br)C3CC2C2N=NC32)cc1 (stereo not drawn)
Cynodon dact. (seed)
  % damage: 100%
Ipom. spp.
  pest or weed control at 3000 g/ha: 100%
Galium apar.; 3.0 kg/ha POST
  pest or weed control at 3000 g/ha: 80%
Lolium mult.; 3.0 kg/ha POST
  pest or weed control at 3000 g/ha: 100%
Lolium mult.; 3.0 kg/ha PRE
  pest or weed control at 3000 g/ha: 95%
Sinapis alba
  pest or weed control at 3000 g/ha: 100%
Mentha piper.
  pest or weed control at 3000 g/ha: 100%

## CN(C)NC(=O)CCC(=O)O [drawing 439]
Cynodon dactyl.; 1.0 kg/ha POST
  inhibition at 1000 g/ha: 20%
Cynodon dactyl.; 2.0 kg/ha POST
  inhibition at 2000 g/ha: 20%
Euphorbia genic.; 1.0 kg/ha PRE
  inhibition at 1000 g/ha: 0%
Euphorbia genic.; 2.0 kg/ha PRE
  inhibition at 2000 g/ha: 0%
Glycine max; 1.0 kg/ha PRE
  inhibition at 1000 g/ha: 0%
Glycine max; 2.0 kg/ha PRE
  inhibition at 2000 g/ha: 0%
Arachys hypog.; 1.0 kg/ha POST
  inhibition at 1000 g/ha: 30%
Arachys hypog.; 1.0 kg/ha PRE
  inhibition at 1000 g/ha: 50%
Arachys hypog.; 2.0 kg/ha POST
  inhibition at 2000 g/ha: 30%
Arachys hypog.; 2.0 kg/ha PRE
  inhibition at 2000 g/ha: 50%

## [O-][N+]1=NC2C3CC(C(Br)C3Br)C21 (stereo not drawn)
Ipom. spp.
  pest or weed control at 3000 g/ha: 60%
Galium apar.; 3.0 kg/ha POST
  pest or weed control at 3000 g/ha: 40%
Lolium mult.; 3.0 kg/ha POST
  pest or weed control at 3000 g/ha: 85%
Lolium mult.; 3.0 kg/ha PRE
  pest or weed control at 3000 g/ha: 80%
Sinapis alba
  pest or weed control at 3000 g/ha: 80%
Mentha piper.
  pest or weed control at 3000 g/ha: 95%
